In patent US20250171431A1, “HETEROCYCLIC INHIBITORS OF IGF-1R FOR TREATMENT OF DISEASE” (HORIZON THERAPEUTICS IRELAND DAC, priority 2023, published 2025):

These compounds were tested against IGF-1R (Homo sapiens (Human), UniProt P08069) (assay: Example B-1: IGF-1R Assay (PC3 cells, IGF1 stimulation, AlphaLISA)). Settings: 200 ng/mL IGF1 stimulation, read-out: Biological Activity against IGF-1R IC50.
Type: cell-based
Procedure: 50K PC3 cells were seeded on day 1 in 50 μL of media in 96-well plate and incubated overnight at 37° C., 5% CO2. On day 2, all cells were expected to be at 80-90% confluency. Cells were starved for two hours by changing the media to 90 μL of EMEM serum-free media and incubated for 2 hours. Next, cells were treated with 10 μL of 10× concentrated and 3× serially diluted compounds for two hours. It makes 1× of compounds in 100 μL media. This was followed by stimulation of cells with 11×IGF1 for 30 min in 10 μL of serum-free EMEM media at the final concentration of 200 ng/mL.
The media was removed and replaced by 50 μL of 1× lysis buffer from the AlphaLISA kit (with 1× of cOmplete™ protease inhibitor). The plates were sealed, and cells were allowed to lyse for 10 min in the shaker before storing the plate at −20° C. until used. The AlphaLISA assay with processed cell lysates were performed as described in the protocol. Briefly, 10 μL of the undiluted sample were loaded to 384 well Optiplates and 5 μL of the acceptor mix (as described in the AlphaLISA kit) was added to each well. The plates were sealed and briefly vortexed followed by the incubation at RT for 3 hours. In the dark, 5 μL of donor mix was added to each well. All plates were sealed and stored at RT overnight. The plates were read in EnVision reader using standard AlphaLISA settings.
Compound activity was analyzed using CBIS data analysis suite (ChemInnovation, CA). Percentage inhibition was calculated using the following formula: % Inhibition=100%×(1−(mean RLU of test sample−mean RLU of vehicle control)/(mean RLU of EC80 control−mean RLU of vehicle control)). The activity for representative examples of the invention is shown in the following table, wherein A: IC50≤500 nM; B: 500 nM<IC50≤2 μM; C: 2 μM<IC50≤10 μM; D: IC50>10 μM.

IGF-1R, sequence (P08069 31-1367): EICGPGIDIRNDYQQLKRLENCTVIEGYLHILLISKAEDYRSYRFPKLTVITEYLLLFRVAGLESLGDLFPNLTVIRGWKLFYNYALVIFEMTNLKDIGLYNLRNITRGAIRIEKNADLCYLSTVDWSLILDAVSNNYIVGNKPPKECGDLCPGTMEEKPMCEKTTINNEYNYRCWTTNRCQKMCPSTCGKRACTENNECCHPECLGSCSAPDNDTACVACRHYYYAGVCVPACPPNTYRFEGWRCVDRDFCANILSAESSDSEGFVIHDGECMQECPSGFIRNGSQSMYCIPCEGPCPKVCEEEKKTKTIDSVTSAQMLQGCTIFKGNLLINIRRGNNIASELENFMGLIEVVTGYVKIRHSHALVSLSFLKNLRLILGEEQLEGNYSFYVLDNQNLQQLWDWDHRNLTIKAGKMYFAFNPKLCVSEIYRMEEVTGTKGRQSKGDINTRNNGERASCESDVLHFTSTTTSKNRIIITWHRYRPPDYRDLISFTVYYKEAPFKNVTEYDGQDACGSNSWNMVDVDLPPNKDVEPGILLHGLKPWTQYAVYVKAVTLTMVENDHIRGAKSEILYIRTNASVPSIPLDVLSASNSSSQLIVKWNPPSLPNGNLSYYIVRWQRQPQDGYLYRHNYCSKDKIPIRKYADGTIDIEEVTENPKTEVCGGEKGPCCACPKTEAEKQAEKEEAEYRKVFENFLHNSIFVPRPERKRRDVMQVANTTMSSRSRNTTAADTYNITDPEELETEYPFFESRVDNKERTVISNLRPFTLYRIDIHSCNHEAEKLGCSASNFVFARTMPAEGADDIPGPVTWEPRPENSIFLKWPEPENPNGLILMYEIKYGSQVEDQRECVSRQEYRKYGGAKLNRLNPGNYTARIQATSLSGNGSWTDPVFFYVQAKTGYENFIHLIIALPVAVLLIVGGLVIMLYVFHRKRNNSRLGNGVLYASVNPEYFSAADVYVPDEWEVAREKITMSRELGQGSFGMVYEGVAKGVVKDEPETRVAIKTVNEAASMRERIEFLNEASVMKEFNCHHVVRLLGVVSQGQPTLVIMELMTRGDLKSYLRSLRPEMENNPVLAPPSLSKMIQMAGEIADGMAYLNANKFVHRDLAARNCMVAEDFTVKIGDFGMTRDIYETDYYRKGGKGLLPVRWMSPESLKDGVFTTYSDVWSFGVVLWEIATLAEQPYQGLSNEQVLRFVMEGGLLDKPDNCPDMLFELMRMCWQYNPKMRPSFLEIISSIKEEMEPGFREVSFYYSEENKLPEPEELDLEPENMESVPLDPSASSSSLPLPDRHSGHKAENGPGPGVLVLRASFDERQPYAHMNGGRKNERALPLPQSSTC

IC50 [nM]	SMILES
≤ 500	Clc1cccc2cc(Nc3ccnc(Nc4ccc(OCCCN5CCOCC5)cc4)n3)cnc12 [Compound 416, 4-(8-chloro-3-quinolylamino)-2-[p-(3-morpholinopropoxy)phenylamino]pyrimidine]
≤ 500	COc1cc(Nc2nccc(Nc3cnc4ccccc4c3)n2)ccc1O[C@H]1CC[C@@H](N(C)C)CC1 [Compound 331]
2000 to 10000	CS(=O)(=O)c1ccc2ncc(Nc3ccnc(Nc4ccc(OCCCN5CCOCC5)cc4)n3)cc2c1 [Compound 411, 4-(6-mesyl-3-quinolylamino)-2-[p-(3-morpholinopropoxy)phenylamino]pyrimidine]
≤ 500	c1cc(Nc2cnc3c(c2)C2CCC3C2)nc(Nc2ccc(OCCCN3CCOCC3)cc2)n1 (stereo not shown) [Compound 372, 4-(3-azatricyclo[6.2.1.0^2,7]undeca-2,4,6-trien-5-ylamino)-2-[p-(3-morpholinopropoxy)phenylamino]pyrimidine]
≤ 500	C[C@@H]1COc2ncc(Nc3ccnc(Nc4ccc(OCCCN5CCOCC5)cc4)n3)cc2O1 [Compound 105, 4-[(R)-2-methyl-2,3-dihydro-1,4-dioxa-5-aza-7-naphthylamino]-2-[p-(3-morpholinopropoxy)phenylamino]pyrimidine]
> 10000	COc1cc(Nc2nccc(Nc3cnc4cc(F)c(F)cc4c3)n2)cnc1N1CCNC(=O)C1 [Compound 471, 4-{5-[4-(6,7-difluoro-3-quinolylamino)-2-pyrimidinylamino]-3-methoxy-2-pyridyl}-2-piperazinone]
≤ 500	COc1cc(Nc2ncc(F)c(Nc3cc4ccccc4nc3C(N)=O)n2)cnc1N1CCC(C)(O)CC1 [Compound 491, 3-{5-fluoro-2-[6-(4-hydroxy-4-methyl-1-piperidyl)-5-methoxy-3-pyridylamino]-4-pyrimidinylamino}-2-quinolinecarboxamide]
> 10000	COc1cc(Nc2nccc(Nc3cc4cccc(F)c4[nH]c3=O)n2)cnc1N1CCS(=N)(=O)CC1 [Compound 240, 4-{5-[4-(8-fluoro-2-oxo-1,2-dihydro-3-quinolylamino)-2-pyrimidinylamino]-3-methoxy-2-pyridyl}-1-imino-1λ^6,4-thiazinan-1-one]
≤ 500	c1ccc2ncc(Nc3ccnc(Nc4ccc(OCCCN5CCCCC5)c(OCC5CCCO5)c4)n3)cc2c1 (stereo not shown) [Compound 402, 2-{4-(3-piperidinopropoxy)-3-[(tetrahydro-2-furyl)methoxy]phenylamino}-4-(3-quinolylamino)pyrimidine]
≤ 500	COc1cc(Nc2nccc(Nc3cc4cccc(F)c4[nH]c3=O)n2)cnc1N1CCN(C2COC2)CC1 [Compound 237, 8-fluoro-3-(2-{5-methoxy-6-[4-(3-oxetanyl)-1-piperazinyl]-3-pyridylamino}-4-pyrimidinylamino)-1,2-dihydro-2-quinolinone]
≤ 500	COc1ccc2cc(Nc3ccnc(Nc4ccc(OCCCN5CCCCC5)c(OC)c4)n3)cnc2c1 [Compound 426, 2-[3-methoxy-4-(3-piperidinopropoxy)phenylamino]-4-(7-methoxy-3-quinolylamino)pyrimidine]
≤ 500	COc1cc(Nc2nccc(Nc3cnc4cc(F)c(F)cc4c3)n2)cnc1N1CCNC(C(F)F)C1 (stereo not shown) [Compound 482, 2-{6-[3-(difluoromethyl)-1-piperazinyl]-5-methoxy-3-pyridylamino}-4-(6,7-difluoro-3-quinolylamino)pyrimidine]
≤ 500	COc1cc(Nc2nccc(Nc3cnc4c(Cl)cccc4c3)n2)ccc1OCCCN1CCOCC1 [Compound 413, 4-(8-chloro-3-quinolylamino)-2-[3-methoxy-4-(3-morpholinopropoxy)phenylamino]pyrimidine]
≤ 500	COc1cc(Nc2nccc(Nc3cc4cccc(F)c4[nH]c3=O)n2)cnc1N1CCOC(C)(C)C1 [Compound 160, 3-((2-((6-(2,2-dimethylmorpholino)-5-methoxypyridin-3-yl)amino)pyrimidin-4-yl)amino)-8-fluoroquinolin-2(1H)-one]
≤ 500	COc1cc(Nc2nccc(Nc3cnc4[nH]ccc4c3)n2)ccc1OCCCN1CCCCC1 [Compound 381, 4-(1H-1,7-diazainden-5-ylamino)-2-[3-methoxy-4-(3-piperidinopropoxy)phenylamino]pyrimidine]
≤ 500	CN(C)[C@H]1CC[C@@H](Oc2ccc(Nc3nccc(Nc4cnc5ccc(Cl)cc5c4)n3)cc2)CC1 [Compound 310, 4-(6-chloro-3-quinolylamino)-2-{p-[(1s,4s)-4-(dimethylamino)cyclohexyloxy]phenylamino}pyrimidine]
≤ 500	COc1cc(Nc2nccc(Nc3cnc4cc(F)c(F)cc4c3)n2)cnc1OC1CCNCC1(F)F (stereo not shown) [Compound 263, 2-[6-(3,3-difluoro-4-piperidyloxy)-5-methoxy-3-pyridylamino]-4-(6,7-difluoro-3-quinolylamino)pyrimidine]
≤ 500	COc1cc(Nc2nccc(Nc3cnc4ccccc4c3)n2)ccc1O[C@H]1CC[C@@H](N2CCOCC2)CC1 [Compound 18, 2-{3-methoxy-4-[(1s,4s)-4-morpholinocyclohexyloxy]phenylamino}-4-(3-quinolylamino)pyrimidine]
≤ 500	COc1cc(Nc2nccc(Nc3cc4ccccc4[nH]c3=O)n2)ccc1OCCCN1CCCCC1 [Compound 250, 3-{2-[3-methoxy-4-(3-piperidinopropoxy)phenylamino]-4-pyrimidinylamino}-2(1H)-quinolinone]
≤ 500	O=C1CN([C@H]2CC[C@@H](Oc3ccc(Nc4nccc(Nc5cnc6ccccc6c5)n4)cc3)CC2)CCN1 [Compound 41]
≤ 500	COc1cc(Nc2nccc(Nc3cnc4ccc(Br)cc4c3)n2)ccc1O[C@H]1CC[C@@H](N2CCOCC2)CC1 [Compound 32, 4-(6-bromo-3-quinolylamino)-2-{3-methoxy-4-[(1s,4s)-4-morpholinocyclohexyloxy]phenylamino}pyrimidine]
> 10000	COc1cc(Nc2nccc(Nc3cnc4ccc(Cl)cc4c3)n2)ccc1OC1CN(C)C1 [Compound 293, 4-(6-chloro-3-quinolylamino)-2-[3-methoxy-4-(1-methyl-3-azetidinyloxy)phenylamino] pyrimidine]
≤ 500	COc1cc(Nc2nccc(Nc3cc4cccc(F)c4[nH]c3=O)n2)cnc1N1CCNC(C(F)(F)F)C1 (stereo not shown) [Compound 239, 8-fluoro-3-(2-{5-methoxy-6-[3-(trifluoromethyl)-1-piperazinyl]-3-pyridylamino}-4-pyrimidinylamino)-1,2-dihydro-2-quinolinone]

SMILES	IC50 [nM]
COc1cc(Nc2ncc(F)c(Nc3cc4ccccc4nc3C(N)=O)n2)ccc1O[C@H]1C[C@@H](N(C)C)C1 [Compound 193, 3-(5-fluoro-2-{3-methoxy-4-[(1s,3s)-3-(dimethylamino)cyclobutoxy]phenylamino}-4-pyrimidinylamino)-2-quinolinecarboxamide]	≤ 500
COc1cc(Nc2nccc(Nc3cnc4ccccc4c3)n2)cc(C#N)c1O[C@H]1C[C@H](N(C)C)C1 [Compound 267, 3-methoxy-5-[4-(3-quinolylamino)-2-pyrimidinylamino]-2-[(1r,3r)-3-(dimethylamino)cyclobutoxy] benzonitrile]	≤ 500
CN(C)[C@H]1C[C@H](Oc2ccc(Nc3nccc(Nc4cnc5ccccc5c4)n3)cc2C#N)C1 [Compound 42, 5-[4-(3-quinolylamino)-2-pyrimidinylamino]-2-[(1r,3r)-3-(dimethylamino)cyclobutoxy] benzonitrile]	≤ 500
COc1cc(Nc2nccc(Nc3cnc4cc(F)cnc4c3)n2)ccc1O[C@H]1C[C@@H](N(C)C)C1 [Compound 272, 4-(7-fluoro-1,5-diaza-3-naphthylamino)-2-{3-methoxy-4-[(1s,3s)-3-(dimethylamino)cyclobutoxy]phenylamino}pyrimidine]	≤ 500
COc1cc(Nc2nccc(Nc3cnc4ccc(F)c(F)c4c3)n2)ccc1O[C@H]1C[C@@H](N(C)C)C1 [Compound 125, 4-(5,6-difluoro-3-quinolylamino)-2-{3-methoxy-4-[(1s,3s)-3-(dimethylamino)cyclobutoxy]phenylamino}pyrimidine]	≤ 500
COc1cc(Nc2nccc(Nc3cnc4c(c3)CCCCC4)n2)ccc1O[C@H]1C[C@@H](N(C)C)C1 [Compound 202, 4-{8-azabicyclo[5.4.0]undeca-1(7),8,10-trien-10-ylamino}-2-{3-methoxy-4-[(1s,3s)-3-(dimethylamino)cyclobutoxy]phenylamino}pyrimidine]	≤ 500
COc1cc(Nc2nccc(Nc3cc4cccc(Cl)c4[nH]c3=O)n2)ccc1O[C@H]1C[C@H](N(C)C)C1 [Compound 112, 8-chloro-3-(2-{3-methoxy-4-[(1r,3r)-3-(dimethylamino)cyclobutoxy]phenyl-amino}-4-pyrimidinylamino)-1,2-dihydro-2-quinolinone]	≤ 500
COc1cc(Nc2nccc(Nc3cnc4c(c3)OCCO4)n2)cc(C#N)c1O[C@H]1C[C@H](N(C)C)C1 [Compound 44, 5-[4-(2,3-dihydro-1,4-dioxa-5-aza-7-naphthylamino)-2-pyrimidinylamino]-3-methoxy-2-[(1r,3r)-3-(dimethylamino)cyclobutoxy] benzonitrile]	≤ 500
